Active and inactive are the calls of the source. The calls are words filed in the database; no cut-off is given here.
Assays:
HUVEC [1] = assay: Growth inhibition of HUVEC cells after 72 hrs; format: functional, cell-based; conditions: Homo sapiens
[2] = Growth inhibition of KB3-1 cells after 72 hrs; format: functional, cell-based; conditions: Homo sapiens, KB 3-1, 72 h
K562 [3] = assay: Growth inhibition of K562 cells after 72 hrs; format: functional, cell-based; conditions: Homo sapiens, K562, 72 h
[4] = Growth inhibition of Neuro2A cells after 72 hrs; format: functional, cell-based; conditions: N2a
K562 [5] = assay: Selectivity index, ratio of IC50 for K562 cells to IC50 for HUVEC cells; format: functional, Homo sapiens
HUVEC [6] = assay: Selectivity index, ratio of IC50 for Neuro2A cells to IC50 for HUVEC cells; format: functional, Homo sapiens
HUVEC [7] = assay: Selectivity index, ratio of IC50 for KB3-1 cells to IC50 for HUVEC cells; format: functional, Homo sapiens
HUVEC [8] = assay: Inhibition of VEGF-induced cell migration in HUVEC at 0.3 uM after 12 hrs; format: functional, cell-based; conditions: Homo sapiens
HUVEC [9] = assay: Inhibition of VEGF-induced cell migration in HUVEC at 1.0 uM after 12 hrs; format: functional, cell-based; conditions: Homo sapiens
[10] = Growth inhibition of HUVEC at 1 uM; format: cell-based; conditions: human, HUVEC cells
[11] = Growth inhibition of HUVEC at 10 uM; format: cell-based; conditions: human, HUVEC cells
[12] = biological target: Mitogen-activated protein kinase 3 (Homo sapiens) (UniProt P27361); assay: Inhibition of VEGF-induced ERK1 phosphorylation in HUVEC cells after 6 hrs by immunoblotting; format: cell-based
[13] = biological target: Mitogen-activated protein kinase 1 (Homo sapiens) (UniProt P28482); assay: Inhibition of VEGF-induced ERK2 phosphorylation in HUVEC cells after 6 hrs by immunoblotting; format: cell-based
HUVEC [14] = assay: Induction of apoptosis assessed as activation of caspase 3 in HUVEC cells at 1 uM after 48 hrs; format: functional, Homo sapiens
HUVEC [15] = assay: Induction of apoptosis assessed as activation of caspase 3 in HUVEC cells at 10 uM after 48 hrs; format: functional, Homo sapiens
HUVEC [16] = assay: Induction of apoptosis assessed as activation of caspase 7 in HUVEC cells at 1 uM after 48 hrs; format: functional, Homo sapiens
HUVEC [17] = assay: Induction of apoptosis assessed as activation of caspase 7 in HUVEC cells at 10 uM after 48 hrs; format: functional, Homo sapiens
HUVEC [18] = assay: Induction of apoptosis assessed as activation of caspase 3 in HUVEC cells at 1 uM after 60 hrs; format: functional, Homo sapiens
HUVEC [19] = assay: Induction of apoptosis assessed as activation of caspase 3 in HUVEC cells at 10 uM after 60 hrs; format: functional, Homo sapiens
HUVEC [20] = assay: Induction of apoptosis assessed as activation of caspase 7 in HUVEC cells at 1 uM after 60 hrs; format: functional, Homo sapiens
HUVEC [21] = assay: Induction of apoptosis assessed as activation of caspase 7 in HUVEC cells at 10 uM after 60 hrs; format: functional, Homo sapiens
KB 3-1 [22] = assay: Induction of apoptosis assessed as activation of caspase 3 in KB3-1 cells at 10 uM; format: functional, cell-based; conditions: Homo sapiens
KB 3-1 [23] = assay: Induction of apoptosis assessed as activation of caspase 7 in KB3-1 cells at 10 uM; format: functional, cell-based; conditions: Homo sapiens

Chain of Mitogen-activated protein kinase 3 (Homo sapiens) (P27361 whole entry): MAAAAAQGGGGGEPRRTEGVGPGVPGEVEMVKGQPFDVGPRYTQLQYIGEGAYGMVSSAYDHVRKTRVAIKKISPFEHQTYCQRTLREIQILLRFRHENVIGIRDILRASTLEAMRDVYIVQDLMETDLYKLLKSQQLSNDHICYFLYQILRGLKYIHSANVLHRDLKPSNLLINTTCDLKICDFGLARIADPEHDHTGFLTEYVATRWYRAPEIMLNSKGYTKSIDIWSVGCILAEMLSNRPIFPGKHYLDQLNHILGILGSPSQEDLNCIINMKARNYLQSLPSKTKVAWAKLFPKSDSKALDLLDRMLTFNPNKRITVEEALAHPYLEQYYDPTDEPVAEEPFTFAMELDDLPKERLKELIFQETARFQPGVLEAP
Chain of Mitogen-activated protein kinase 1 (Homo sapiens) (P28482 whole entry): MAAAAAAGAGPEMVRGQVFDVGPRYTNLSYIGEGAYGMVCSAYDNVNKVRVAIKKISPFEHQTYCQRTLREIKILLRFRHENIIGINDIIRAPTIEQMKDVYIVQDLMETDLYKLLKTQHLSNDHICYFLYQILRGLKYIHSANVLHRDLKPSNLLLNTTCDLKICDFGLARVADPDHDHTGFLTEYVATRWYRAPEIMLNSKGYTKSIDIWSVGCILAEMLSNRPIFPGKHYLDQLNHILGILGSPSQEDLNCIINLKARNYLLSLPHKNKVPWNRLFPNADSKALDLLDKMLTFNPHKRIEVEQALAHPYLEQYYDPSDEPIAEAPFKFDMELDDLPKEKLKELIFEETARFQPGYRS

COC(=O)[C@]1(C)[C@@H]2CC[C@]3(C)C(C(C)CCCC(C)CCCC(C)C)C(=O)C[C@H]3[C@@]2(C)CC[C@H]1OC(C)=O (stereo partly specified)
IC50 (HUVEC [1]): > 100 µM
IC50 [2]: > 100 µM
IC50 (K562 [3]): 53 µM
IC50 [4]: 80 µM

COC(=O)[C@@]1(C)[C@H](O)CC[C@@]2(C)[C@H]1CC[C@]1(C)\C(=C(C)/C=C/C=C(C)/C=C/C=C(C)C)C(=O)C[C@@H]21
Ratio IC50 (K562 [5]): 27
Ratio IC50 (HUVEC [6]): 31
IC50 (HUVEC [1]): 0.19 µM
IC50 [2]: 4.9 µM
IC50 (K562 [3]): 5.2 µM
IC50 [4]: 5.9 µM
Ratio IC50 (HUVEC [7]): 25

COC(=O)[C@]1(C)[C@@H]2CC[C@]3(C)\C(=C(C)/C=C/C=C(C)/C=C/C=O)C(=O)C[C@H]3[C@@]2(C)CC[C@H]1OC(C)=O [ACETYLJASPIFERAL B METHYL ESTER]
Ratio IC50 (K562 [5]): 10
Ratio IC50 (HUVEC [6]): 28
IC50 (HUVEC [1]): 0.78 µM
IC50 [2]: 16 µM
IC50 (K562 [3]): 7.8 µM
IC50 [4]: 22 µM
Ratio IC50 (HUVEC [7]): 20

COC(=O)[C@]1(C)[C@@H]2CC[C@]3(C)\C(=C(C)/C=C/C=C(C)\C=C\C=C(C)C)C(=O)C[C@H]3[C@@]2(C)CC[C@H]1OC(C)=O
Ratio IC50 (K562 [5]): 360
Ratio IC50 (HUVEC [6]): 75
IC50 (HUVEC [1]): 0.06 µM
IC50 [2]: 18 µM
IC50 (K562 [3]): 22 µM
IC50 [4]: 4.7 µM
Ratio IC50 (HUVEC [7]): 200

CC(=O)O[C@@H]1CC[C@@]2(C)[C@@H](CC[C@]3(C)/C(=C(C)/C=C/C=O)C(=O)C[C@@H]23)[C@@]1(C)C(=O)O [ACETYLJASPIFERAL E]
Ratio IC50 (K562 [5]): 15
Ratio IC50 (HUVEC [6]): 14
IC50 (HUVEC [1]): 2.2 µM
IC50 [2]: 28 µM
IC50 (K562 [3]): 32 µM
IC50 [4]: 34 µM
Ratio IC50 (HUVEC [7]): 13

COC(=O)[C@]1(C)[C@@H]2CC[C@]3(C)\C(=C(C)/C=C/C=C(C)/C=C/C(O)C(C)(C)O)C(=O)C[C@H]3[C@@]2(C)CC[C@H]1OC(C)=O (stereo partly specified) [GLOBOSTELLATIC ACID F METHYL ESTER]
Ratio IC50 (K562 [5]): 12
Ratio IC50 (HUVEC [6]): 5
IC50 (HUVEC [1]): 0.98 µM
IC50 [2]: 8.6 µM
IC50 (K562 [3]): 12 µM
IC50 [4]: 5 µM
Ratio IC50 (HUVEC [7]): 9

COC(=O)[C@]1(C)[C@@H]2CC[C@]3(C)\C(=C(C)/C=C/C=C(\C)C(/C=C/C(C)(C)O)OC)C(=O)C[C@H]3[C@@]2(C)CC[C@H]1OC(C)=O (stereo partly specified)
Ratio IC50 (K562 [5]): 9
Ratio IC50 (HUVEC [6]): 6
IC50 (HUVEC [1]): 1.1 µM
IC50 [2]: 6.5 µM
IC50 (K562 [3]): 9.3 µM
IC50 [4]: 6 µM
Ratio IC50 (HUVEC [7]): 6

COC(=O)[C@]1(C)[C@@H]2CC[C@]3(C)\C(=C(C)/C=C/C=C(C)/C=C/C=C(C)C)C(=O)C[C@H]3[C@@]2(C)CC[C@H]1OC(C)=O
Ratio IC50 (K562 [5]): 256
Ratio IC50 (HUVEC [6]): 83
Activity (HUVEC [8]): Active
Activity (HUVEC [9]): Active
inhibition at 1 µM [10]: > 90%
inhibition at 10 µM [11]: > 90%
Activity [12]: inactive
Activity [13]: inactive
Fold change (HUVEC [14]): 5
IC50 [2]: 14 µM
IC50 (K562 [3]): 23 µM
IC50 [4]: 7.5 µM
Fold change (HUVEC [15]): 5
Fold change (HUVEC [16]): 17
Fold change (HUVEC [17]): 17
Fold change (HUVEC [18]): 13
Fold change (HUVEC [19]): 13
Fold change (HUVEC [20]): 45
Fold change (HUVEC [21]): 45
Activity (KB 3-1 [22]): inactive
Activity (KB 3-1 [23]): inactive

COC(=O)[C@]1(C)[C@@H]2CC[C@]3(C)/C(=C(C)/C=C/C=C(C)/C=C/C=C(C)C)C(=O)C[C@H]3[C@@]2(C)CC[C@H]1OC(C)=O
Ratio IC50 (K562 [5]): 141
Ratio IC50 (HUVEC [6]): 50
IC50 (HUVEC [1]): 0.064 µM
IC50 [2]: 3.1 µM
IC50 (K562 [3]): 9 µM
IC50 [4]: 3.2 µM
Ratio IC50 (HUVEC [7]): 48

COC(=O)[C@]1(C)[C@@H]2CC[C@]3(C)/C(=C(C)/C=C/C=C(C)\C=C\C=C(C)C)C(=O)C[C@H]3[C@@]2(C)CC[C@H]1OC(C)=O
Ratio IC50 (K562 [5]): 55
Ratio IC50 (HUVEC [6]): 19
IC50 (HUVEC [1]): 0.4 µM
IC50 [2]: 9.8 µM
IC50 (K562 [3]): 22 µM
IC50 [4]: 7.9 µM
Ratio IC50 (HUVEC [7]): 25
